Data set [1] can be described thus: Cytotoxicity battery in human hepatoma cells. The data set is classed as cell-based. Particulars: HepG2 human hepatoma cells, after 24 h, read-out: cytotoxic concentrations. Here is the method: (§1) The concentration ranges of the drugs were chosen according to their solubility and their plasma level. Each drug was dissolved in DMSO. The final concentration of DMSO was 0.1% or 0.2% in the medium for both samples and corresponding controls. […] All drug solutions in medium were freshly prepared and protected from light. SAL was tested in seven concentrations from 0.39 to 25 µg/mL. Tiamulin was added in two concentrations (1 and 10 µg/mL) or just one concentration (1 µg/mL) to cell lines or human hepatocytes, respectively. Prednisolone was tested in one concentration—1 µg/mL independent of the type of cells. […] The cytotoxicity was assessed after 24 and 48 h of exposure of cell lines or after 12 and 24 h exposure of PHH. […]
The metabolic activity of living cells was assessed by measuring the activity of dehydrogenases. […] The plate was shaken for 15 min at room temperature and transferred to a microplate reader to measure the absorbance at 570 nm, using a blank as a reference. Cytotoxicity was expressed as a percentage of the negative control (0.1% or 0.2% DMSO).
The assay, based on staining of living cells by neutral red (NR), was performed according to the protocol described by Borenfreund and Puerner. […] After 10 min of shaking, the absorbance of the dissolved NR was measured at 540 nm using a blank as a reference. […]

A further data set has as its system turkeys. Particulars: cited from earlier work.
Another data set relates to Balb/c 3T3 cells. As to the kind of experiment: TPC assay in Balb/c 3T3. The class given is cell-based, mouse. Particulars: for EC50: Mus musculus, read-out: EC50 (effective concentration). As to the method:
The HepG2 cell line was purchased from the American Type Culture Collection (ATCC® HB-8065™). The cells were cultured in Minimum Essential Medium Eagle (MEME) (Sigma–Aldrich Co. (St. Louis, MO, USA)). Normal murine embryonic fibroblasts, Balb/c 3T3 clone A31 cell line (gift from Department of Swine Diseases of the National Veterinary Research Institute in Pulawy) was cultured in Dulbecco’s Modified Eagle’s Medium (DMEM) (Invitrogen Corporations (Paisley, UK)). The media were supplemented with 10% BCS (Balb/c 3T3), 10% FBS (HepG2), 1% L-glutamine, and 1% antibiotic solution. The cells were maintained in 75 cm^2 cell culture flasks in humidified incubator at 37 °C, in an atmosphere of 5% CO2. The medium was refreshed every two or three days and the cells were trypsinized by 0.25% trypsin–0.02% EDTA after reaching 70–80% confluence. The initial cell viability was determined with the trypan blue exclusion test. Single cell suspensions were prepared and adjusted to a density of 2 × 10^5 cell/mL (HepG2) and 1 × 10^5 cell/mL (Balb/c 3T3). The cell suspension was transferred to 96-well plates (100 µL/well) and incubated for 24 h before exposure to the studied drugs.
as §1, with “respectively.” for “respectively. Prednisolone was tested in one concentration—1 µg/mL independent of the type of cells.”
(§2) The assay was based on staining total cellular protein [14]. […] The absorbance was measured at 595 nm in a microplate reader using blank as a reference. Cytotoxicity was expressed as a percentage of the negative control (0.1% or 0.2% DMSO).

For a further data set, the system named is humans. Particulars: accidental poisoning: nausea, photophobia, limb weakness, tachycardia, muscle pain, mild rhabdomyolysis with myoglobinuria; cited from earlier work.
Data set [2] concerns primary human hepatocytes (PHH). As to the kind of experiment: TPC assay (total protein content) in primary human hepatocytes. The class given is cell-based. To be noted: Hepatocyte, mean ± SEM, n = 3, read-out: EC50 (effective concentration). As to the method: Cryopreserved PHH were purchased from the Primacyt GmbH (Schwerin, Germany). Two different lots were chosen based on CYP activity. The donor was a person. The post-thaw viability was 94.6% for lot HH160531 (used in two repetitions) and 85.0% for lot HH130805. The initial cell viability was determined with the trypan blue exclusion test. The cells were thawed and purified using the Plating and Thawing Kit (Primacyt GmbH). Purified hepatocytes were resuspended in Hepatocyte Plating Medium (Primacyt GmbH) and seeded on collagen-coated 96-well plates at a density of 9 × 10^5 cell/mL and incubated at 37 °C with 5% CO2. After 6 h of incubation, the medium was removed and the cells were washed with PBS. Then Human Hepatocyte Maintenance Medium (HHMM) (Primacyt GmbH) with the studied drugs was added to hepatocytes (100 µL/well). The culture conditions were kept according to the manufacturer’s protocol.
The concentration ranges of the drugs were chosen according to their solubility and their plasma level. Each drug was dissolved in DMSO. […] The cytotoxicity was assessed after 24 and 48 h of exposure of cell lines or after 12 and 24 h exposure of PHH. […]
as §2

Several values for one entry are separate records, joined by “and”; a condition that tells them apart may be missing. Equal entries are not always repeated. Where two headings read alike, the source gives them in different places.

As to `CC[C@@H](C(=O)[C@@H](C)[C@@H](O)[C@H](C)[C@@H]1O[C@@H]([C@@H](CC)C(=O)O)CC[C@@H]1C)[C@H]1O[C@]2(C=C[C@@H](O)[C@]3(CC[C@@](C)([C@H]4CC[C@](O)(CC)[C@H](C)O4)O3)O2)[C@H](C)C[C@@H]1C` [SAL, salinomycin], in data set [1], the EC50 at 24 h was 800 nM to 20.5 µM and 0.6 µg/mL to 15.4 µg/mL. For the same molecule, the LD50 in the data set with turkeys is 0.6 mg/kg b.w. In the data set on Balb/c 3T3 cells (Balb/c 3T3, 24 h, SAL alone or in both drug combinations (Figure S3)), the “lowest concentration with significant effect on total protein content” value was determined as 0.39 µg/mL. Moreover, the EC50 with Balb/c 3T3 cells (BALB/c3T3, 24 h) is 7.9 ± 1.1 µg/mL; with Balb/c 3T3 cells (BALB/c3T3, 48 h) it was 1.4 ± 0.5 µg/mL; in data set [2] (12 h exposure), greater than 25 µg/mL; in data set [2] (24 h exposure), greater than 25 µg/mL. The “toxicity in a human” value with humans is “severe toxicity”.
